Experimental findings from patent US9463188B2, “Osteopontin production inhibitor containing dictyopyrone derivative or dihydrodictyopyrone derivative as active ingredient” (TOHOKU UNIVERSITY, priority 2013, dated 2016) are described below.

For the test, the system named is OPN promoter in A549/OPNluc cells. In words: Influence of mevalonic acid on suppression of luciferase activity under control of OPN promoter. Format: cell-based, human. The procedure: In order to determine whether the OPN production inhibitory effect of a dictyopyrone derivative or a dihydrodictyopyrone derivative contained as an active ingredient in the OPN production inhibitor according to the present invention is based on the same mechanism of action as a well-known statin-based drug for treatment of hypercholesteremia, simvastatin or the compound 3 was added to a culture liquid containing A549/OPNluc cells to determine its effect on gene expression under control of OPN promoter and to observe whether or not the effect was maintained even in the presence of mevalonic acid. […]
The solution in each well was mixed with a vortex mixer, and then the 96-well plate was incubated in a CO2 incubator (at 37° C. and 5% CO2) for 48±4 hours. […] After 30 min, 90 min, and 120 min, absorbance values (450 nm) were measured using a microplate reader (Bio-Rad; Benchmark or Thermo Scientific; Varioskan Flash).
The absorbance values were input into an Excel file, and the absorbance values of all the samples of each test group were divided by the average absorbance value of Control to determine the ratio of the absorbance value of each sample to the absorbance value of Control (Ratio to Control). Absorbance value of each sample÷absorbance value of Control=Ratio to Control […]

As to `CCCCCCCCCCCC(=O)[C@H]1C(=O)O[C@@H](C)C[C@@H]1C` [Chemical formula 3], the “luciferase activity under control of OPN promoter after addition of MVA” value (compound 3 25 μM + MVA (100 μM or 1 mM)) was “not recovered”. The “luciferase activity under control of OPN promoter” value (compound 3 25 μM, no MVA, corrected by WST Ratio to Control) is “suppression of luciferase activity”.
